# System: Key Broadleaf Weed and Crop Species
# Experiment: Post-Emergent Test II (Table 5)
# Type: in vivo
# Settings: Abutilon theophrasti, post-emergence, 336 h, ABUTH: velvetleaf (Abutilon theophrasti), application rate 70 (kg ai/ha; footnote: g ai/ha), read-out: Visual Growth Reduction (%) 14 Days After Application ABUTH
# Description: (§1) Seeds or nutlets of the desired test plant species were planted in Sun Gro Metro-Mix® 360 planting mixture, which typically has a pH of 6.0 to 6.8 and an organic matter content of about 30 percent, in plastic pots with a surface area of 64 square centimeters. When required to ensure good germination and healthy plants, a fungicide treatment and/or other chemical or physical treatment was applied. The plants were grown for 7-21 days in a greenhouse with an approximate 15 h photoperiod which was maintained at about 23-29° C. during the day and 22-28° C. during the night. Nutrients and water were added on a regular basis and supplemental lighting was provided with overhead metal halide 1000-Watt lamps as necessary. The plants were employed for testing when they reached the first or second true leaf stage.
# (§2) A weighed amount, determined by the highest rate to be tested, of each test compound was placed in a 25 mL glass vial and was dissolved in 4 mL of a 97:3 v/v mixture of acetone and DMSO to obtain concentrated stock solutions. […] The concentrated stock solutions obtained were diluted with 20 mL of an aqueous mixture containing acetone, water, isopropyl alcohol, DMSO, Atplus 411F crop oil concentrate, and Triton® X-155 surfactant in a 48.5:39:10:1.5:1.0:0.02 v/v ratio to obtain spray solutions containing the highest application rates. Additional application rates were obtained by serial dilution of 12 mL of the high rate solution into a solution containing 2 mL of 97:3 v/v mixture of acetone and DMSO and 10 mL of an aqueous mixture containing acetone, water, isopropyl alcohol, DMSO, Atplus 411F crop oil concentrate, and Triton X-155 surfactant in a 48.5:39:10:1.5:1.0:0.02 v/v ratio to obtain ½×, ¼×, ⅛× and 1/16× rates of the high rate. Compound requirements are based upon a 12 mL application volume at a rate of 187 liters per hectare (L/ha). Formulated compounds were applied to the plant material with an overhead Mandel track sprayer equipped with 8002E nozzles calibrated to deliver 187 L/ha over an application area of 0.503 square meters at a spray height of 18 inches (43 cm) above the average plant canopy height. Control plants were sprayed in the same manner with the solvent blank.
# (§3) The treated plants and control plants were placed in a greenhouse as described above and watered by subirrigation to prevent wash-off of the test compounds. After 14 days, the condition of the test plants as compared with that of the untreated plants was determined visually and scored on a scale of 0 to 100 percent where 0 corresponds to no injury and 100 corresponds to complete kill and presented as indicated in Table A. Some of the compounds tested, application rates employed, plant species tested, and results are given in Table 5.
row,SMILES,pest or weed control at 70 g/ha [%]
1,"COC(=O)c1nc(-c2ccc(Cl)c(F)c2Cl)c(F)c(N)c1Cl [Compound 19, Methyl 4-amino-3-chloro-6-(2,4-dichloro-3-fluorophenyl)-5-fluoropicolinate]",95 to 100

# Same assay, conditions: Abutilon theophrasti, post-emergence, 336 h, ABUTH: velvetleaf (Abutilon theophrasti), application rate 140 (kg ai/ha; footnote: g ai/ha), read-out: Visual Growth Reduction (%) 14 Days After Application ABUTH
row,SMILES,pest or weed control at 140 g/ha [%]
1,"COC(=O)c1nc(-c2ccc(Cl)c(F)c2Cl)c(F)c(N)c1Cl [Compound 19, Methyl 4-amino-3-chloro-6-(2,4-dichloro-3-fluorophenyl)-5-fluoropicolinate]",95 to 100

# Same assay, conditions: Amaranthus retroflexus, post-emergence, 336 h, AMARE: redroot pigweed (Amaranthus retroflexus), application rate 70 (kg ai/ha; footnote: g ai/ha), read-out: Visual Growth Reduction (%) 14 Days After Application AMARE
row,SMILES,pest or weed control at 70 g/ha [%]
1,"COC(=O)c1nc(-c2ccc(Cl)c(F)c2Cl)c(F)c(N)c1Cl [Compound 19, Methyl 4-amino-3-chloro-6-(2,4-dichloro-3-fluorophenyl)-5-fluoropicolinate]",95 to 100

# Same assay, conditions: Amaranthus retroflexus, post-emergence, 336 h, AMARE: redroot pigweed (Amaranthus retroflexus), application rate 140 (kg ai/ha; footnote: g ai/ha), read-out: Visual Growth Reduction (%) 14 Days After Application AMARE
row,SMILES,pest or weed control at 140 g/ha [%]
1,"COC(=O)c1nc(-c2ccc(Cl)c(F)c2Cl)c(F)c(N)c1Cl [Compound 19, Methyl 4-amino-3-chloro-6-(2,4-dichloro-3-fluorophenyl)-5-fluoropicolinate]",95 to 100

# Same assay, conditions: Brassica napus, post-emergence, 336 h, BRSSS: oilseed rape, canola (Brassica napus), application rate 70 (kg ai/ha; footnote: g ai/ha), read-out: Visual Growth Reduction (%) 14 Days After Application BRSSS
row,SMILES,pest or weed control at 70 g/ha [%]
1,"COC(=O)c1nc(-c2ccc(Cl)c(F)c2Cl)c(F)c(N)c1Cl [Compound 19, Methyl 4-amino-3-chloro-6-(2,4-dichloro-3-fluorophenyl)-5-fluoropicolinate]",95 to 100

# Same assay, conditions: Brassica napus, post-emergence, 336 h, BRSSS: oilseed rape, canola (Brassica napus), application rate 140 (kg ai/ha; footnote: g ai/ha), read-out: Visual Growth Reduction (%) 14 Days After Application BRSSS
row,SMILES,pest or weed control at 140 g/ha [%]
1,"COC(=O)c1nc(-c2ccc(Cl)c(F)c2Cl)c(F)c(N)c1Cl [Compound 19, Methyl 4-amino-3-chloro-6-(2,4-dichloro-3-fluorophenyl)-5-fluoropicolinate]",95 to 100

# Same assay, conditions: Chenopodium album, post-emergence, 336 h, CHEAL: lambsquarters (Chenopodium album), application rate 70 (kg ai/ha; footnote: g ai/ha), read-out: Visual Growth Reduction (%) 14 Days After Application CHEAL
row,SMILES,pest or weed control at 70 g/ha [%]
1,"COC(=O)c1nc(-c2ccc(Cl)c(F)c2Cl)c(F)c(N)c1Cl [Compound 19, Methyl 4-amino-3-chloro-6-(2,4-dichloro-3-fluorophenyl)-5-fluoropicolinate]",85 to 94

# Same assay, conditions: Chenopodium album, post-emergence, 336 h, CHEAL: lambsquarters (Chenopodium album), application rate 140 (kg ai/ha; footnote: g ai/ha), read-out: Visual Growth Reduction (%) 14 Days After Application CHEAL
row,SMILES,pest or weed control at 140 g/ha [%]
1,"COC(=O)c1nc(-c2ccc(Cl)c(F)c2Cl)c(F)c(N)c1Cl [Compound 19, Methyl 4-amino-3-chloro-6-(2,4-dichloro-3-fluorophenyl)-5-fluoropicolinate]",95 to 100

# Same assay, conditions: Euphorbia heterophylla, post-emergence, 336 h, EPHHL: wild poinsettia (Euphorbia heterophylla), application rate 70 (kg ai/ha; footnote: g ai/ha), read-out: Visual Growth Reduction (%) 14 Days After Application EPHHL
row,SMILES,pest or weed control at 70 g/ha [%]
1,"COC(=O)c1nc(-c2ccc(Cl)c(F)c2Cl)c(F)c(N)c1Cl [Compound 19, Methyl 4-amino-3-chloro-6-(2,4-dichloro-3-fluorophenyl)-5-fluoropicolinate]",85 to 94

# Same assay, conditions: Euphorbia heterophylla, post-emergence, 336 h, EPHHL: wild poinsettia (Euphorbia heterophylla), application rate 140 (kg ai/ha; footnote: g ai/ha), read-out: Visual Growth Reduction (%) 14 Days After Application EPHHL
row,SMILES,pest or weed control at 140 g/ha [%]
1,"COC(=O)c1nc(-c2ccc(Cl)c(F)c2Cl)c(F)c(N)c1Cl [Compound 19, Methyl 4-amino-3-chloro-6-(2,4-dichloro-3-fluorophenyl)-5-fluoropicolinate]",95 to 100

# Same assay, conditions: Helianthus annuus, post-emergence, 336 h, HELAN: sunflower (Helianthus annuus), application rate 70 (kg ai/ha; footnote: g ai/ha), read-out: Visual Growth Reduction (%) 14 Days After Application HELAN
row,SMILES,pest or weed control at 70 g/ha [%]
1,"COC(=O)c1nc(-c2ccc(Cl)c(F)c2Cl)c(F)c(N)c1Cl [Compound 19, Methyl 4-amino-3-chloro-6-(2,4-dichloro-3-fluorophenyl)-5-fluoropicolinate]",95 to 100

# Same assay, conditions: Helianthus annuus, post-emergence, 336 h, HELAN: sunflower (Helianthus annuus), application rate 140 (kg ai/ha; footnote: g ai/ha), read-out: Visual Growth Reduction (%) 14 Days After Application HELAN
row,SMILES,pest or weed control at 140 g/ha [%]
1,"COC(=O)c1nc(-c2ccc(Cl)c(F)c2Cl)c(F)c(N)c1Cl [Compound 19, Methyl 4-amino-3-chloro-6-(2,4-dichloro-3-fluorophenyl)-5-fluoropicolinate]",95 to 100

# Same assay, conditions: Viola tricolor, post-emergence, 336 h, VIOTR: wild pansy (Viola tricolor), application rate 70 (kg ai/ha; footnote: g ai/ha), read-out: Visual Growth Reduction (%) 14 Days After Application VIOTR
row,SMILES,pest or weed control at 70 g/ha [%]
1,"COC(=O)c1nc(-c2ccc(Cl)c(F)c2Cl)c(F)c(N)c1Cl [Compound 19, Methyl 4-amino-3-chloro-6-(2,4-dichloro-3-fluorophenyl)-5-fluoropicolinate]",85 to 94

# Same assay, conditions: Viola tricolor, post-emergence, 336 h, VIOTR: wild pansy (Viola tricolor), application rate 140 (kg ai/ha; footnote: g ai/ha), read-out: Visual Growth Reduction (%) 14 Days After Application VIOTR
row,SMILES,pest or weed control at 140 g/ha [%]
1,"COC(=O)c1nc(-c2ccc(Cl)c(F)c2Cl)c(F)c(N)c1Cl [Compound 19, Methyl 4-amino-3-chloro-6-(2,4-dichloro-3-fluorophenyl)-5-fluoropicolinate]",95 to 100

# System: Key Grass and Sedge Weeds as well as Grass Crops
# Experiment: Post-Emergent Test II (Table 6)
# Type: in vivo
# Settings: CYPSS (CYPES: yellow nutsedge, Cyperus esculentus), 70 g ai/ha
# Description: as §1, §2, §3
row,SMILES,"Visual Growth Reduction (%) 14 Days After Application, CYPSS"
1,"COC(=O)c1nc(-c2ccc(Cl)c(F)c2Cl)c(F)c(N)c1Cl [Compound 19, Methyl 4-amino-3-chloro-6-(2,4-dichloro-3-fluorophenyl)-5-fluoropicolinate]",A (95-100)
